Results: patent US20170050957A1, “4-AMINO-6-(HETEROCYCLIC)PICOLINATES AND 6-AMINO-2-(HETEROCYCLIC)PYRIMIDINE-4-CARBOXYLATES AND THEIR USE AS HERBICIDES” (Dow AgroSciences LLC, priority 2013, published 2017)
Like-named read-outs stand apart in the source and are kept apart here.

Tests used:
[1] = system: Key Broadleaf Weed and Crop Species; experiment: Post-emergent Test II herbicidal activity (Table 15); format: in vivo; details: post-emergence, 336 h, 14 d; for pest or weed control at 35 g/ha: 35 g ai/ha; for pest or weed control at 70 g/ha: 70 g ai/ha; for pest or weed control at 140 g/ha: 140 g ai/ha
In short: (§1)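 Post-emergence spray; seedlings 7-21 d old, 1st-2nd true leaf; 187 L/ha; serial rates 1×-1/16×; solvent blank controls; subirrigated; visual % injury at 14 d.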

[2] = system: Key Grass and Sedge Weeds as well as Grass Crops; experiment: Post-emergent Test II herbicidal activity (Table 16); format: in vivo; details: post-emergence, 336 h, 14 d; for pest or weed control at 35 g/ha: 35 g ai/ha; for pest or weed control at 70 g/ha: 70 g ai/ha; for pest or weed control at 140 g/ha: 140 g ai/ha
In short: as §1

[3] = Abutilon theophrasti, velvetleaf (Abutilon theophrasti), read-out: Visual Growth Reduction (%) 14 Days After Application, ABUTH
[4] = Amaranthus retroflexus, redroot pigweed (Amaranthus retroflexus), read-out: Visual Growth Reduction (%) 14 Days After Application, AMARE
[5] = Brassica napus, oilseed rape, canola (Brassica napus), read-out: Visual Growth Reduction (%) 14 Days After Application, BRSNN
[6] = Chenopodium album, lambsquarters (Chenopodium album), read-out: Visual Growth Reduction (%) 14 Days After Application, CHEAL
[7] = Euphorbia heterophylla, wild poinsettia (Euphorbia heterophylla), read-out: Visual Growth Reduction (%) 14 Days After Application, EPHHL
[8] = Helianthus annuus, sunflower (Helianthus annuus), read-out: Visual Growth Reduction (%) 14 Days After Application, HELAN
[9] = Cyperus esculentus, yellow nutsedge (Cyperus esculentus), read-out: Visual Growth Reduction (%) 14 Days After Application, CYPES
[10] = Echinochloa crus-galli, barnyardgrass (Echinochloa crus-galli), read-out: Visual Growth Reduction (%) 14 Days After Application, ECHCG
[11] = Oryza sativa, rice (Oryza sativa), read-out: Visual Growth Reduction (%) 14 Days After Application, ORYSA
[12] = Setaria faberi, giant foxtail (Setaria faberi), read-out: Visual Growth Reduction (%) 14 Days After Application, SETFA
[13] = Triticum aestivum, wheat, spring (Triticum aestivum), read-out: Visual Growth Reduction (%) 14 Days After Application, TRZAS
[14] = Zea mays, maize, corn (Zea mays), read-out: Visual Growth Reduction (%) 14 Days After Application, ZEAMX

SMILES: COC(=O)c1nc(-c2ccc3cc[nH]c3c2F)c(Cl)c(N)c1Cl [Compound 1.07]
- pest or weed control at 35 g/ha [1, 3]: 0 to 29%
- pest or weed control at 70 g/ha [1, 3]: 0 to 29%
- pest or weed control at 140 g/ha [1, 3]: 0 to 29%
- pest or weed control at 35 g/ha [1, 4]: 85 to 94%
- pest or weed control at 70 g/ha [1, 4]: 95 to 100%
- pest or weed control at 140 g/ha [1, 4]: 95 to 100%
- pest or weed control at 35 g/ha [1, 5]: 0 to 29%
- pest or weed control at 70 g/ha [1, 5]: 0 to 29%
- pest or weed control at 140 g/ha [1, 5]: 0 to 29%
- pest or weed control at 35 g/ha [1, 6]: 85 to 94%
- pest or weed control at 70 g/ha [1, 6]: 85 to 94%
- pest or weed control at 140 g/ha [1, 6]: 85 to 94%
- pest or weed control at 35 g/ha [1, 7]: 60 to 74%
- pest or weed control at 70 g/ha [1, 7]: 60 to 74%
- pest or weed control at 140 g/ha [1, 7]: 60 to 74%
- pest or weed control at 35 g/ha [1, 8]: 95 to 100%
- pest or weed control at 70 g/ha [1, 8]: 95 to 100%
- pest or weed control at 140 g/ha [1, 8]: 95 to 100%
- pest or weed control at 35 g/ha [2, 9]: 0 to 29%
- pest or weed control at 70 g/ha [2, 9]: 0 to 29%
- pest or weed control at 140 g/ha [2, 9]: 0 to 29%
- pest or weed control at 35 g/ha [2, 10]: 0 to 29%
- pest or weed control at 70 g/ha [2, 10]: 0 to 29%
- pest or weed control at 140 g/ha [2, 10]: 0 to 29%
- pest or weed control at 35 g/ha [2, 11]: 0 to 29%
- pest or weed control at 70 g/ha [2, 11]: 0 to 29%
- pest or weed control at 140 g/ha [2, 11]: 0 to 29%
- pest or weed control at 35 g/ha [2, 12]: 60 to 74%
- pest or weed control at 70 g/ha [2, 12]: 75 to 84%
- pest or weed control at 140 g/ha [2, 12]: 75 to 84%
- pest or weed control at 35 g/ha [2, 13]: 0 to 29%
- pest or weed control at 70 g/ha [2, 13]: 0 to 29%
- pest or weed control at 140 g/ha [2, 13]: 0 to 29%
- pest or weed control at 35 g/ha [2, 14]: 0 to 29%
- pest or weed control at 70 g/ha [2, 14]: 0 to 29%
- pest or weed control at 140 g/ha [2, 14]: 0 to 29%

SMILES: COC(=O)c1nc(-c2ccc3ccn(C)c3c2)c(F)c(N)c1Cl [Compound 1.10]
- pest or weed control at 35 g/ha [1, 3]: 0 to 29%
- pest or weed control at 70 g/ha [1, 3]: 0 to 29%
- pest or weed control at 140 g/ha [1, 3]: 0 to 29%
- pest or weed control at 35 g/ha [1, 4]: 0 to 29%
- pest or weed control at 70 g/ha [1, 4]: 85 to 94%
- pest or weed control at 140 g/ha [1, 4]: 95 to 100%
- pest or weed control at 35 g/ha [1, 5]: 0 to 29%
- pest or weed control at 70 g/ha [1, 5]: 0 to 29%
- pest or weed control at 140 g/ha [1, 5]: 0 to 29%
- pest or weed control at 35 g/ha [1, 6]: 95 to 100%
- pest or weed control at 70 g/ha [1, 6]: 95 to 100%
- pest or weed control at 140 g/ha [1, 6]: 95 to 100%
- pest or weed control at 35 g/ha [1, 7]: 0 to 29%
- pest or weed control at 70 g/ha [1, 7]: 0 to 29%
- pest or weed control at 140 g/ha [1, 7]: 0 to 29%
- pest or weed control at 35 g/ha [1, 8]: 0 to 29%
- pest or weed control at 70 g/ha [1, 8]: 0 to 29%
- pest or weed control at 140 g/ha [1, 8]: 45 to 59%
- pest or weed control at 35 g/ha [2, 9]: 0 to 29%
- pest or weed control at 70 g/ha [2, 9]: 0 to 29%
- pest or weed control at 140 g/ha [2, 9]: 0 to 29%
- pest or weed control at 35 g/ha [2, 10]: 0 to 29%
- pest or weed control at 70 g/ha [2, 10]: 0 to 29%
- pest or weed control at 140 g/ha [2, 10]: 0 to 29%
- pest or weed control at 35 g/ha [2, 11]: 0 to 29%
- pest or weed control at 70 g/ha [2, 11]: 0 to 29%
- pest or weed control at 140 g/ha [2, 11]: 0 to 29%
- pest or weed control at 35 g/ha [2, 12]: 0 to 29%
- pest or weed control at 70 g/ha [2, 12]: 0 to 29%
- pest or weed control at 140 g/ha [2, 12]: 0 to 29%
- pest or weed control at 35 g/ha [2, 13]: 0 to 29%
- pest or weed control at 70 g/ha [2, 13]: 0 to 29%
- pest or weed control at 140 g/ha [2, 13]: 0 to 29%
- pest or weed control at 35 g/ha [2, 14]: 0 to 29%
- pest or weed control at 70 g/ha [2, 14]: 0 to 29%
- pest or weed control at 140 g/ha [2, 14]: 0 to 29%

SMILES: COC(=O)c1nc(-c2cc3[nH]ccc3cc2F)c(F)c(N)c1Cl [Compound 1.13]
- pest or weed control at 35 g/ha [1, 3]: 0 to 29%
- pest or weed control at 70 g/ha [1, 3]: 0 to 29%
- pest or weed control at 140 g/ha [1, 3]: 0 to 29%
- pest or weed control at 35 g/ha [1, 4]: 0 to 29%
- pest or weed control at 70 g/ha [1, 4]: 30 to 44%
- pest or weed control at 140 g/ha [1, 4]: 30 to 44%
- pest or weed control at 35 g/ha [1, 5]: 0 to 29%
- pest or weed control at 70 g/ha [1, 5]: 0 to 29%
- pest or weed control at 140 g/ha [1, 5]: 30 to 44%
- pest or weed control at 35 g/ha [1, 6]: 60 to 74%
- pest or weed control at 70 g/ha [1, 6]: 75 to 84%
- pest or weed control at 140 g/ha [1, 6]: 85 to 94%
- pest or weed control at 35 g/ha [1, 7]: 0 to 29%
- pest or weed control at 70 g/ha [1, 7]: 0 to 29%
- pest or weed control at 140 g/ha [1, 7]: 30 to 44%
- pest or weed control at 35 g/ha [1, 8]: 45 to 59%
- pest or weed control at 70 g/ha [1, 8]: 60 to 74%
- pest or weed control at 140 g/ha [1, 8]: 60 to 74%
- pest or weed control at 35 g/ha [2, 9]: 0 to 29%
- pest or weed control at 70 g/ha [2, 9]: 0 to 29%
- pest or weed control at 140 g/ha [2, 9]: 0 to 29%
- pest or weed control at 35 g/ha [2, 10]: 0 to 29%
- pest or weed control at 70 g/ha [2, 10]: 0 to 29%
- pest or weed control at 140 g/ha [2, 10]: 0 to 29%
- pest or weed control at 35 g/ha [2, 11]: 0 to 29%
- pest or weed control at 70 g/ha [2, 11]: 0 to 29%
- pest or weed control at 140 g/ha [2, 11]: 0 to 29%
- pest or weed control at 35 g/ha [2, 12]: 0 to 29%
- pest or weed control at 70 g/ha [2, 12]: 0 to 29%
- pest or weed control at 140 g/ha [2, 12]: 0 to 29%
- pest or weed control at 35 g/ha [2, 13]: 0 to 29%
- pest or weed control at 70 g/ha [2, 13]: 0 to 29%
- pest or weed control at 140 g/ha [2, 13]: 0 to 29%
- pest or weed control at 35 g/ha [2, 14]: 0 to 29%
- pest or weed control at 70 g/ha [2, 14]: 0 to 29%
- pest or weed control at 140 g/ha [2, 14]: 0 to 29%
